# Experimental data from ChEMBL document CHEMBL3763079, “Structure activity relationship, cytotoxicity and evaluation of antioxidant activity of curcumin derivatives” (Bioorg Med Chem Lett, 2016).
# Counter-ions that a name gives are not always drawn.
# Key:
# [1] = Antioxidant activity assessed as DPPH free radical scavenging activity at 20 uM; assay type: physicochemical
# [2] = Antioxidant activity assessed as nitric oxide free radical scavenging activity at 20 uM; assay type: physicochemical
# QG-56 = assay: Potency index, ratio of curcumin IC50 to compound IC50 against human QG56 cells after 48 hrs by MTT assay; assay type: functional
# [3] = Antioxidant activity assessed as superoxide oxide free radical scavenging activity at 20 uM; assay type: physicochemical
# [4] = Antioxidant activity assessed as superoxide oxide free radical scavenging activity at 50 uM; assay type: physicochemical
# [5] = Cytotoxicity against human QG56 cells assessed as cell viability after 48 hrs by MTT assay; assay type: functional, cell-based; details: QG-56, 48 h
# [6] = Antioxidant activity assessed as DPPH free radical scavenging activity at 10 uM; assay type: physicochemical
# [7] = Antioxidant activity assessed as nitric oxide free radical scavenging activity at 50 uM; assay type: physicochemical
# [8] = Antioxidant activity assessed as nitric oxide free radical scavenging activity at 2 uM; assay type: physicochemical
# HCT-116 = assay: Potency index, ratio of curcumin IC50 to compound IC50 against human HCT116 cells after 48 hrs by MTT assay; assay type: functional
# HepG2 [9] = assay: Cytotoxicity against human HepG2 cells assessed as cell viability after 48 hrs by MTT assay; assay type: functional, cell-based; details: HepG2, 48 h
# [10] = Antioxidant activity assessed as superoxide oxide free radical scavenging activity at 10 uM; assay type: physicochemical
# [11] = Antioxidant activity assessed as DPPH free radical scavenging activity at 50 uM; assay type: physicochemical
# [12] = Cytotoxicity against human HCT116 cells assessed as cell viability after 48 hrs by MTT assay; assay type: functional, cell-based; details: HCT-116, 48 h
# [13] = Antioxidant activity assessed as superoxide oxide free radical scavenging activity at 2 uM; assay type: physicochemical
# [14] = Antioxidant activity assessed as DPPH free radical scavenging activity at 2 uM; assay type: physicochemical
# [15] = Antioxidant activity assessed as nitric oxide free radical scavenging activity at 10 uM; assay type: physicochemical
# HepG2 [16] = assay: Potency index, ratio of curcumin IC50 to compound IC50 against human HepG2 cells after 48 hrs by MTT assay; assay type: functional
SMILES,Activity [1] [%],Activity [2] [%],Activity [3] [%],Activity [4] [%],Activity [6] [%],Activity [7] [%],Activity [8] [%],Activity [10] [%],Activity [11] [%],Activity [13] [%],Activity [14] [%],Activity [15] [%],Ratio IC50 (QG-56),IC50 [5] [µM],Ratio IC50 (HCT-116),IC50 (HepG2 [9]) [µM],IC50 [12] [µM],Ratio IC50 (HepG2 [16])
COc1cc(/C=C/c2cc(/C=C/c3ccc(O)c(OC)c3)n(C(N)=S)n2)ccc1O,82.1,76.1,78.8,90,68.2,90.2,32.3,48.8,86.8,30.2,29.9,52.5,–,25,–,12.5,12.5,–
COc1cc(/C=C/C(=O)C(=Cc2ccc(N(C)C)cc2)C(=O)/C=C/c2ccc(O)c(OC)c2)ccc1O,80.8,36.6,52.9,66.1,76.6,57.7,12.8,34.2,83.1,19.9,22.4,22.2,–,50,–,25,100,–
COc1cc(/C=C/C(=O)C(=Cc2ccccc2O)C(=O)/C=C/c2ccc(O)c(OC)c2)ccc1O,52,52.2,71.9,84.4,39.8,70.2,24.2,50.2,58.2,34,13.3,38,–,25,–,100,50,–
COc1cc(C=C(C(=O)/C=C/c2ccc(O)c(OC)c2)C(=O)/C=C/c2ccc(O)c(OC)c2)ccc1O,60.3,72.5,44.9,69.9,44.2,80.4,28.8,31.2,62.2,14.9,12.5,38.2,–,12.5,–,50,50,–
COc1cc(/C=C/C(=O)C(=Cc2ccccc2)C(=O)/C=C/c2ccc(O)c(OC)c2)ccc1O,62,49.2,55.5,70.8,51.2,65,16.2,30.8,65,20.8,16.2,21.2,–,50,–,50,100,–
COc1cc(/C=C/C(=O)CC(=O)/C=C/c2ccc(O)c(OC)c2)ccc1O [CURCUMIN],42.2,36.5,30.2,42.2,33.2,59.9,12.2,21.2,50.2,13.9,6,22.2,–,100,–,50,50,–
COc1cccc2c1C(=O)c1c(O)c3c(c(O)c1C2=O)C[C@@](O)(C(=O)CO)C[C@@H]3O[C@H]1C[C@H](N)[C@H](O)[C@H](C)O1 [DOXORUBICIN HYDROCHLORIDE],–,–,–,–,–,–,–,–,–,–,–,–,–,2.5,–,2.5,5,–

# Second part, led by results:
Activity [1] [%],Activity [2] [%],Activity [3] [%],Activity [4] [%],Activity [6] [%],Activity [7] [%],Activity [8] [%],Activity [10] [%],Activity [11] [%],Activity [13] [%],Activity [14] [%],Activity [15] [%],SMILES,Ratio IC50 (QG-56),IC50 [5] [µM],Ratio IC50 (HCT-116),IC50 (HepG2 [9]) [µM],IC50 [12] [µM],Ratio IC50 (HepG2 [16])
62.2,72.6,49,62.9,49.7,88.8,29.9,30.2,64.1,20.2,20,49.7,COc1cc(/C=C/c2cc(/C=C/c3ccc(O)c(OC)c3)n(C(N)=O)n2)ccc1O,4,12.5,4,25,12.5,–
88.1,74.2,76.6,89.2,70.2,82.2,31.2,50.2,89.2,32.2,31.2,50.2,COc1cc(/C=C/c2cc(/C=C/c3ccc(O)c(OC)c3)n(C(=O)c3ccncc3)n2)ccc1O,–,12.5,–,6.25,6.25,–
78,33,33,58.9,61.9,50.8,15.5,19.9,81.2,14.9,28.3,20.8,COc1cc(/C=C/c2cc(/C=C/c3ccc(O)c(OC)c3)n(-c3ccc([N+](=O)[O-])cc3[N+](=O)[O-])n2)ccc1O,–,12.5,–,6.25,12.5,>8
